Counter-ions that a name gives are not always drawn. Positions of bridges follow the written chain, without caps; N, C: chain ends. Non-standard residues stand in square brackets, D forms with d. Residues, ends and D or L forms follow the SMILES beside them. *: point of attachment. X1 = CC[C@H](C)CCCCC(=O)*; Dab = NCC[C@H](N)C(=O)O
Legend:
[1] = Individual drug exposure at steady state (PK/PD analysis); type: in vivo, human
[2] = set-up: method as in Li et al., 2003; conditions: Sprague-Dawley rats; ref Li et al., 2003; cited from earlier work
[3] = Population pharmacokinetic modeling of intravenous colistin sulfate (plasma LC-MS/MS, Phoenix NLME); type: in vivo, human
Protocol: This study was conducted at the Third Xiangya Hospital of Central South University between May 2021 and April 2022. The design of this research fully conformed to the principles of the Helsinki Accords, and the study protocol was approved by the Research Ethics Committee of the Third Xiangya Hospital of Central South University (No: 2021-S396). Written informed consent was obtained from all patients or their legal representatives.
Colistin sulfate treatment was at the discretion of their medical teams. […] Colistin sulfate was routinely subjected to therapeutic drug monitoring (TDM) in our hospital. […] Other blood samples were collected randomly from residual blood of blood gas analysis or routine blood tests. In addition, urine samples from 6 patients with catheters in the intensive care unit were collected and recorded across a dosage interval (0–12 h after dosing) after 72 h of therapy. All samples were centrifuged for 10 min (4,000 ×g), and the supernatant was immediately collected and stored at −80°C pending analysis.
Colistin A and colistin B in plasma and urinary samples were quantified using a validated ultraperformance liquid chromatography tandem mass spectrometry (LC-MS/MS) assay. Briefly, samples were pretreated with acetonitrile, and 1 μL supernatant was injected into the LC-MS/MS instrument for analysis. A Waters XBridge BEH HILIC (4.6 × 150 mm, 2.5 μm) column was used. The mobile phase, consisting of eluents A (0.1% formic acid in water, vol/vol) and B (methanol), was delivered at a flow of 0.5 ml/min. Analysis of independently prepared quality control samples indicated good reproducibility (coefficients of variation ≤12.57%), and accuracy ranged from 88.52% to 109.43%. The limit of quantification was 0.034 mg/L for colistin A and 0.059 mg/L for colistin B. Since colistin A and B had similar structures, molecular weights and pharmacokinetic characteristics, the concentrations of colistin A and B were added together and referred to as colistin ([Li et al., 2003]; [Couet et al., 2011]).
Population PK analysis was performed using a non-linear mixed-effect modeling with the Phoenix® NLME software (version 8.3.4, Certara L.P. United States). The first-order conditional estimation-extended least-squares (FOCE-ELS) method was used to develop the PPK model. One- and two-compartment models with linear elimination were compared based on Akaike information criteria (AIC) and Bayesian information criterion (BIC). The inter-individual variability of PK parameters was assumed to follow a log-normal distribution and described using an exponential model, and residual variability was described by an additive, proportional, or combined error model. The coefficient of variation (CV%), goodness-of-fit plots, and the likelihood ratio test (-2 loglikelihood; -2LL) were used to evaluate the model.
Then, a stepwise covariate modeling (SCM) method was used to explore candidate covariates on PK parameters, including age, sex, weight, ALT, AST, TBIL, DBIL, TBA, TP, ALB, UA, BUN, CrCL, WBC, NEUT, HGB, RBC, HCT, PLT, PT, TT, APTT, PA, FIB, CRP, PCT, LAC, and 24-h urine volume, where continuous covariates (e.g., age) were modeled by using the power function and categorical covariates (e.g., sex) were described by an exponential function. By comparing with the base model, a drop in objective function value (OFV) > 3.84 (p < 0.05, df = 1) during forward selection steps and an increase of OFV >6.63 (p < 0.01, df = 1) in backward elimination steps were the inclusion criteria for covariates.
Finally, the reliability of the final model was evaluated by goodness-of-fit plots. Additionally, the performance of the final model was assessed by a prediction-corrected visual predictive check (pcVPC) of 1,000 replicates using Monte Carlo simulations, and a bootstrap analysis with 1,000 samples was conducted to evaluate the model stability.

[4] = patient 1, 1.0 MU q12h, CrCL 63.93 ml/min
[5] = patient 2, 1.0 MU q12h, CrCL 138.05 ml/min
[6] = patient 3, 0.75 MU q12h + inhaled 0.25MU q12h, CrCL 193.84 ml/min
[7] = patient 6, 1.0 MU q12h + inhaled 0.25MU q12h, CrCL 23.79 ml/min
[8] = patient 7, 0.75 MU q12h + inhaled 0.25MU q12h, CrCL 10.2 ml/min
[9] = patient 8, 0.75 MU q12h + inhaled 0.25MU q12h, CrCL 62.44 ml/min
[10] = patient 9, 0.75 MU q12h + inhaled 0.25MU q12h, CrCL 70.98 ml/min
[11] = patient 10, 0.75 MU q12h + inhaled 0.25MU q12h, CrCL 29.3 ml/min
[12] = patient 11, 1.0 MU q12h, CrCL 26.81 ml/min
[13] = patient 12, 0.5 MU q8h, CrCL 9.7 ml/min
[14] = patient 13, 0.5 MU q8h, CrCL 52.49 ml/min
[15] = patient 14, 0.5 MU q8h, CrCL 93.28 ml/min
[16] = patient 15, 0.75 MU q8h + inhaled 0.25MU q12h, CrCL 41.41 ml/min
[17] = patient 16, 0.5 MU q8h + inhaled 0.25MU q12h, CrCL 45.07 ml/min
[18] = patient 18, 0.75 MU q12h + inhaled 0.25MU q12h, CrCL 101.48 ml/min
[19] = patient 19, 0.5 MU q8h, CrCL 91.55 ml/min

SMILES: CC[C@H](C)CCCCC(=O)N[C@@H](CCN)C(=O)N[C@H](C(=O)N[C@@H](CCN)C(=O)N[C@H]1CCNC(=O)[C@H]([C@@H](C)O)NC(=O)[C@H](CCN)NC(=O)[C@H](CCN)NC(=O)[C@H](CC(C)C)NC(=O)[C@@H](CC(C)C)NC(=O)[C@H](CCN)NC1=O)[C@@H](C)O [colistin sulfate] (X1-[Dab]T[Dab][Dab][Dab][dL]L[Dab][Dab]T; lactam 4-C)
- Css, avg [1, 4]: 1.99 mg/L
- Css, max [1, 4]: 3.98 mg/L
- Css, avg [1, 5]: 1.17 mg/L
- Css, max [1, 5]: 2.48 mg/L
- Css, avg [1, 6]: 0.57 mg/L
- Css, max [1, 6]: 1.71 mg/L
- Css, min [1, 6]: 0.13 mg/L
- Css, avg [1, 7]: 2.43 mg/L
- Css, max [1, 7]: 3.01 mg/L
- Css, min [1, 7]: 1.95 mg/L
- Css, avg [1, 8]: 1.59 mg/L
- Css, max [1, 8]: 2.49 mg/L
- Css, min [1, 8]: 0.89 mg/L
- Css, avg [1, 9]: 1.15 mg/L
- Css, max [1, 9]: 2.10 mg/L
- Css, avg [1, 10]: 2.04 mg/L
- Css, max [1, 10]: 3.02 mg/L
- Css, min [1, 10]: 1.40 mg/L
- Css, avg [1, 11]: 1.51 mg/L
- Css, max [1, 11]: 2.48 mg/L
- Css, min [1, 11]: 0.87 mg/L
- Css, avg [1, 12]: 4.40 mg/L
- Css, max [1, 12]: 5.84 mg/L
- Css, avg [1, 13]: 2.07 mg/L
- Css, max [1, 13]: 2.67 mg/L
- Css, avg [1, 14]: 1.49 mg/L
- Css, max [1, 14]: 2.09 mg/L
- Css, avg [1, 15]: 0.74 mg/L
- Css, max [1, 15]: 1.34 mg/L
- Css, avg [1, 16]: 2.52 mg/L
- Css, max [1, 16]: 3.62 mg/L
- Css, avg [1, 17]: 1.58 mg/L
- Css, max [1, 17]: 2.24 mg/L
- Css, avg [1, 18]: 0.86 mg/L
- Css, max [1, 18]: 1.89 mg/L
- Css, min [1, 18]: 0.28 mg/L
- Css, avg [1, 19]: 1.33 mg/L
- Css, max [1, 19]: 1.92 mg/L
- Css, min [1, 19]: 0.83 mg/L
- dose recovered from urine [2]: 0.18 ± 0.14%
- dV2dALT, exponential parameter coefficient of ALT to V2, final model estimate ([3]; PPK model, n = 20): 0.635
- dCLdCrCL, bootstrap median ([3]; bootstrap with 1,000 samples): 0.373
- dV2dALT, bootstrap median ([3]; bootstrap with 1,000 samples): 0.633
- tvCL2, bootstrap median ([3]; bootstrap with 1,000 samples): 1.78 L/h
- tvCL, bootstrap median ([3]; bootstrap with 1,000 samples): 1.46 L/h
- tvV2, bootstrap median ([3]; bootstrap with 1,000 samples): 53.8 L
- tvV, bootstrap median ([3]; bootstrap with 1,000 samples): 16.2 L
- tvV, typical value of volume of central compartment distribution (V), final model estimate ([3]; critically ill patients, iv, n = 20, 98 plasma concentrations, two-compartment PPK model): 16.1 L
- tvCL2, typical value of inter-compartmental clearance (CL2), final model estimate ([3]; critically ill patients, iv, n = 20, two-compartment PPK model): 1.71 L/h
- tvV2, typical value of volume of peripheral compartment distribution (V2), final model estimate ([3]; critically ill patients, iv, n = 20, two-compartment PPK model, at ALT 37): 50.5 L
- tvCL, typical value of central compartment clearance (CL), final model estimate ([3]; critically ill patients, iv, n = 20, two-compartment PPK model, at CrCL 57.5): 1.50 L/h
- CL, median ([3]; six patients with urine samples, median): 1.519 L/h
